# Measurements taken from paper PMC10141516 (Pharmaceutics, 2023).
# Key:
# [1] = cited from earlier work
# [2] = Apparent solubility test (USP <1236>); settings: for solubility: 20 °C, thermodynamic from solid; for apparent solubility, USP <1236> term: other solvents (water, pH 1.2 to 12.0 buffers)
# Experimental: Then, 200 μL of each solvent was added and stirred at 400 rpm. The temperature of the sample was maintained at 20 ± 2 °C. After shaking for 30 s every 5 min, 200 μL of each solvent was added until no particles of the API were visible. The apparent solubility of the two main components was estimated through the point at which all of the API dissolved and became clear.
# [3] = Compatibility study API-excipient / API-API (total impurities by HPLC); format: physicochemical
# Experimental: The column used was the Gemini C18 column (5.0 μm, 250 mm). […] The mobile phase was filtered through a 0.4 μm polypropylene membrane filter and degassed via sonication. […] The column and sample thermostats were set to 35 °C and 5 °C, respectively. […] The compatibility study was performed using appearance and impurity tests to confirm the interaction between each API and the excipient. Each API was mixed with mannitol, microcrystalline cellulose, lactose, silicified microcrystalline cellulose, calcium hydrogen phosphate anhydrous, pregelatinized starch, sodium starch glycolate, crospovidone, sodium croscarmellose, magnesium stearate, colloidal silicon dioxide, sodium stearyl fumarate, hydroxypropyl cellulose, calcium hydroxide, citric acid, and OPADRY II pink in a 1:1 (w/w) ratio and put into each clear glass vial.
# [4] = Equilibrium solubility test (HPLC); settings: for solubility thermodynamic at 12 h / solubility thermodynamic at 24 h: thermodynamic from solid
# Experimental: The column used was an Agilent C18 column (5.0 μm, 4.6 × 150 mm). The mobile phase and diluted solution of the content and dissolution studies analyses were prepared with 0.5% triethylamine buffer (v/v, pH 6.8 adjusted with 85% phosphoric acid) and acetonitrile at a ratio of 7:3 (v/v). The mobile phase was filtered through a 0.45-μm polypropylene membrane filter and degassed via sonication. The wavelength, flow rate, and injection volume were set to 205 nm, 1.5 mL/min, and 20 μL, respectively. In the case of the content and dissolution studies, the mobile phase was constantly flowed for 18 min via an isocratic elution method and analyzed.
# The equilibrium solubility test was used to calculate the input amount through the apparent solubility test result, and an excess of the API was placed in each beaker and stirred at 400 rpm. At 0, 12, and 24 h immediately after the overdose, 2 mL samples were taken and filtered through a 0.45-μm regenerated cellulose syringe filter. The supernatant of the filtered solution was taken and diluted with a content analysis diluted solution. […] A calibration test was performed, and the sample was diluted with a diluted solution and prepared at a concentration of 0.05–1 mg/mL.
# [5] = oral; cited from earlier work
# [6] = buffer solution, pH 3, aqueous buffer
# [7] = buffer solution, pH 4, aqueous buffer
# [8] = buffer solution, pH 5, aqueous buffer
# [9] = buffer solution, pH 6, aqueous buffer
# [10] = buffer solution, pH 6.8, aqueous buffer
# [11] = buffer solution, pH 7, aqueous buffer
# [12] = buffer solution, pH 8, aqueous buffer
# [13] = buffer solution, pH 9, aqueous buffer
# [14] = buffer solution, pH 10, aqueous buffer
# [15] = buffer solution, pH 11, aqueous buffer
# [16] = pH 1.2 buffer solution, pH 1.2, aqueous buffer
# [17] = pH 2.0 buffer solution, pH 2, aqueous buffer
# [18] = pH 12.0 buffer solution, pH 12, aqueous buffer
structure (smiles),measurement,setting,value
"CCOc1ccc(Cc2cc([C@@H]3O[C@H](CO)[C@@H](O)[C@H](O)[C@H]3O)ccc2Cl)cc1 [Dapagliflozin, (1S)-1,5-Anhydro-1-C-[4-chloro-3-[(4-ethoxyphenyl)methyl]phenyl]-D-glucitol (S)-propane-1,2-diol (1:1) monohydrate]",BCS,[1],Class 3
same,solubility,"[2]; acetonitrile, organic solvent or mixture",33 to 100 mg/mL
same,solubility,[2]; [6],0.1 to 1 mg/mL
same,solubility,[2]; [7],0.1 to 1 mg/mL
same,solubility,[2]; [8],0.1 to 1 mg/mL
same,solubility,[2]; [9],0.1 to 1 mg/mL
same,solubility,[2]; [10],0.1 to 1 mg/mL
same,solubility,[2]; [11],0.1 to 1 mg/mL
same,solubility,[2]; [12],0.1 to 1 mg/mL
same,solubility,[2]; [13],0.1 to 1 mg/mL
same,solubility,[2]; [14],0.1 to 1 mg/mL
same,solubility,[2]; [15],0.1 to 1 mg/mL
same,solubility,"[2]; deionized water, water",0.1 to 1 mg/mL
same,solubility,"[2]; ethanol, organic solvent or mixture",33 to 100 mg/mL
same,solubility,"[2]; methanol, organic solvent or mixture",100 to 1000 mg/mL
same,"apparent solubility, USP <1236> term",[2],very slightly soluble
same,solubility,[2]; [16],0.1 to 1 mg/mL
same,solubility,[2]; [17],0.1 to 1 mg/mL
same,solubility,[2]; [18],0.1 to 1 mg/mL
same,Total Impurities,"[3]; 20 ± 2 °C/60 ± 5% RH, 2 Weeks",0.10%
same,Total Impurities,"[3]; 20 ± 2 °C/60 ± 5% RH, 4 Weeks",0.09%
same,Total Impurities,"[3]; 40 ± 2 °C/75 ± 5% RH, 2 Weeks",0.08%
same,Total Impurities,"[3]; 40 ± 2 °C/75 ± 5% RH, 4 Weeks",0.12%
same,Total Impurities,[3]; Initial,0.09%
same,amount dissolved in dissolution medium,[4]; 900 mL of dissolution medium,more than 0.33 mg per 1 mL
same,solubility thermodynamic at 12 h,[4]; [6],0.4 mg/mL
same,solubility thermodynamic at 24 h,[4]; [6],0.4 mg/mL
same,solubility thermodynamic at 12 h,[4]; [7],0.37 mg/mL
same,solubility thermodynamic at 24 h,[4]; [7],0.37 mg/mL
same,solubility thermodynamic at 12 h,[4]; [8],0.37 mg/mL
same,solubility thermodynamic at 24 h,[4]; [8],0.37 mg/mL
same,solubility thermodynamic at 12 h,[4]; [9],0.32 mg/mL
same,solubility thermodynamic at 24 h,[4]; [9],0.32 mg/mL
same,solubility thermodynamic at 12 h,[4]; [10],0.33 mg/mL
same,solubility thermodynamic at 24 h,[4]; [10],0.33 mg/mL
same,solubility thermodynamic at 12 h,[4]; [11],0.32 mg/mL
same,solubility thermodynamic at 24 h,[4]; [11],0.32 mg/mL
same,solubility thermodynamic at 12 h,[4]; [12],0.35 mg/mL
same,solubility thermodynamic at 24 h,[4]; [12],0.35 mg/mL
same,solubility thermodynamic at 12 h,[4]; [13],0.34 mg/mL
same,solubility thermodynamic at 24 h,[4]; [13],0.34 mg/mL
same,solubility thermodynamic at 12 h,[4]; [14],0.34 mg/mL
same,solubility thermodynamic at 24 h,[4]; [14],0.34 mg/mL
same,solubility thermodynamic at 12 h,[4]; [15],0.21 mg/mL
same,solubility thermodynamic at 12 h,"[4]; deionized water, water",0.29 mg/mL
same,solubility thermodynamic at 24 h,"[4]; deionized water, water",0.29 mg/mL
same,solubility thermodynamic at 12 h,[4]; [16],0.34 mg/mL
same,solubility thermodynamic at 24 h,[4]; [16],0.34 mg/mL
same,solubility thermodynamic at 12 h,[4]; [17],0.35 mg/mL
same,solubility thermodynamic at 24 h,[4]; [17],0.35 mg/mL
same,solubility thermodynamic at 24 h,"[4]; pH 11.0 buffer solution, pH 11, aqueous buffer",0.21 mg/mL
same,solubility thermodynamic at 12 h,[4]; [18],0.24 mg/mL
same,solubility thermodynamic at 24 h,[4]; [18],0.24 mg/mL
same,Tmax,[5],2 h
"N[C@@H](CC(=O)N1CCn2c(nnc2C(F)(F)F)C1)Cc1cc(F)c(F)cc1F.O.O=P(O)(O)O [Sitagliptin, (R)-3-Amino-1-(3-(trifluoromethyl)-5,6-dihydro-[1,2,4]triazolo[4,3-a]pyrazin-7(8H)-yl)-4-(2,4,5-trifluorophenyl)butan-1-one phosphate monohydrate]",biopharmaceutics classification system (BCS),[1],Class 1
same,solubility,[2]; organic solvent or mixture,< 0.1 mg/mL
same,solubility,"[2]; pH 1.2, aqueous buffer",1 to 10 mg/mL
same,solubility,"[2]; pH 2, aqueous buffer",1 to 10 mg/mL
same,solubility,"[2]; pH 3, aqueous buffer",1 to 10 mg/mL
same,solubility,"[2]; pH 4, aqueous buffer",1 to 10 mg/mL
same,solubility,"[2]; pH 5, aqueous buffer",1 to 10 mg/mL
same,solubility,"[2]; pH 6, aqueous buffer",1 to 10 mg/mL
same,solubility,"[2]; pH 6.8, aqueous buffer",1 to 10 mg/mL
same,solubility,"[2]; pH 7, aqueous buffer",1 to 10 mg/mL
same,solubility,"[2]; pH 8, aqueous buffer",1 to 10 mg/mL
same,solubility,"[2]; pH 9, aqueous buffer",1 to 10 mg/mL
same,solubility,"[2]; pH 10, aqueous buffer",0.1 to 1 mg/mL
same,solubility,"[2]; pH 11, aqueous buffer",1 to 10 mg/mL
same,solubility,"[2]; pH 12, aqueous buffer",1 to 10 mg/mL
same,solubility,[2]; water,1 to 10 mg/mL
same,"apparent solubility, USP <1236> term",[2],soluble
same,Total Impurities,"[3]; 20 ± 2 °C/60 ± 5% RH, 2 Weeks",0.00%
same,Total Impurities,"[3]; 20 ± 2 °C/60 ± 5% RH, 4 Weeks",0.00%
same,Total Impurities,"[3]; 40 ± 2 °C/75 ± 5% RH, 2 Weeks",0.00%
same,Total Impurities,"[3]; 40 ± 2 °C/75 ± 5% RH, 4 Weeks",0.00%
same,Total Impurities,[3]; Initial,0.00%
same,solubility thermodynamic at 12 h,"[4]; pH 1.2, aqueous buffer",1.94 mg/mL
same,solubility thermodynamic at 24 h,"[4]; pH 1.2, aqueous buffer",1.94 mg/mL
same,solubility thermodynamic at 12 h,"[4]; pH 2, aqueous buffer",3.11 mg/mL
same,solubility thermodynamic at 24 h,"[4]; pH 2, aqueous buffer",3.11 mg/mL
same,solubility thermodynamic at 12 h,"[4]; pH 3, aqueous buffer",1.7 mg/mL
same,solubility thermodynamic at 24 h,"[4]; pH 3, aqueous buffer",1.7 mg/mL
same,solubility thermodynamic at 12 h,"[4]; pH 4, aqueous buffer",1.61 mg/mL
same,solubility thermodynamic at 24 h,"[4]; pH 4, aqueous buffer",1.61 mg/mL
same,solubility thermodynamic at 12 h,"[4]; pH 5, aqueous buffer",1.51 mg/mL
same,solubility thermodynamic at 24 h,"[4]; pH 5, aqueous buffer",1.52 mg/mL
same,solubility thermodynamic at 12 h,"[4]; pH 6, aqueous buffer",1.16 mg/mL
same,solubility thermodynamic at 24 h,"[4]; pH 6, aqueous buffer",1.16 mg/mL
same,solubility thermodynamic at 12 h,"[4]; pH 6.8, aqueous buffer",2.67 mg/mL
same,solubility thermodynamic at 12 h,"[4]; pH 7, aqueous buffer",2.76 mg/mL
same,solubility thermodynamic at 24 h,"[4]; pH 7, aqueous buffer",2.76 mg/mL
same,solubility thermodynamic at 12 h,"[4]; pH 8, aqueous buffer",1.42 mg/mL
same,solubility thermodynamic at 24 h,"[4]; pH 8, aqueous buffer",1.43 mg/mL
same,solubility thermodynamic at 12 h,"[4]; pH 9, aqueous buffer",1.5 mg/mL
same,solubility thermodynamic at 24 h,"[4]; pH 9, aqueous buffer",1.5 mg/mL
same,solubility thermodynamic at 12 h,"[4]; pH 10, aqueous buffer",0.96 mg/mL
same,solubility thermodynamic at 24 h,"[4]; pH 10, aqueous buffer",0.97 mg/mL
same,solubility thermodynamic at 12 h,"[4]; pH 11, aqueous buffer",1.44 mg/mL
same,solubility thermodynamic at 24 h,"[4]; pH 11, aqueous buffer",1.44 mg/mL
same,solubility thermodynamic at 12 h,"[4]; pH 12, aqueous buffer",1.61 mg/mL
same,solubility thermodynamic at 24 h,"[4]; pH 12, aqueous buffer",1.6 mg/mL
same,solubility thermodynamic at 12 h,[4]; water,1.42 mg/mL
same,solubility thermodynamic at 24 h,[4]; water,1.42 mg/mL
same,bioavailability,[5],approximately 87%
